Data taken from ChEMBL document CHEMBL3351770, “Synthesis, antioxidant and cytoprotective evaluation of potential antiatherogenic phenolic hydrazones. A structure-activity relationship insight” (Bioorg Med Chem, 2014).

Columns and labels:
[1] = Antioxidant activity assessed as DPPH radical scavenging activity by UV-Visible spectrophotometry; type: physicochemical
[2] = Antioxidant activity assessed as reduction in mouse CRL2181 cells-mediated human LDL oxidation by measuring TBARS level at 10 uM after 18 hrs; type: physicochemical, cell-based; set-up: scale not given: the % may be the effect or the level left
[3] = Antioxidant activity assessed as reduction in mouse CRL2181 cells-mediated human LDL oxidation by measuring TBARS level at 1 uM after 18 hrs; type: physicochemical, cell-based; conditions: read-out: Activity
[4] = Cytoprotection in mouse CRL2181 cells assessed as reduction in UV-oxidized LDL-induced cytotoxicity by measuring cell viability at 10 uM after 24 hrs by MTT assay relative to untreated control; type: functional
[5] = Cytoprotection in mouse CRL2181 cells assessed as reduction in UV-oxidized LDL-induced cytotoxicity by measuring cell viability at 1 uM after 24 hrs by MTT assay relative to untreated control; type: functional
[6] = Antioxidant activity assessed as superoxide anion radical scavenging activity at 10 uM by PMS-NADH-NBT system based spectrophotometry; type: physicochemical

SMILES	IC50 [1] [µM]	Activity [2] [%]	inhibition at 1 µM [3] [%]	Activity [4] [%]	Activity [5] [%]	Activity [6] [%]
COc1cc(/C=N/Nc2nncc3ccccc23)cc(OC)c1O	28	4	38	66	46	
COc1cc(/C=N/NC(=O)OCc2ccccc2)cc(OC)c1O	60.5	3	38	69	45	
COc1cc(/C=N/Nc2nc3ccccc3s2)cc(OC)c1O		3	36	55	39	35
COc1cc(/C=N/NC(=O)c2ccncc2)cc(OC)c1O	17	7	48	65	34	
COc1cc(/C=N/Nc2nc3ccccc3s2)ccc1O		7	65	61	44	
COc1cc(/C=N/NC(=O)c2ccncc2)cc(OC)c1OC	> 1000	94	95	4	4	
COc1cc(/C=N/N2C(=O)CSC2=S)ccc1O	12.9	5	66	72	34	
COc1cc(/C=N/Nc2nncc3ccccc23)cc(OC)c1OC.Cl	40.2	93	96	5	6	
COc1cc(/C=N/Nc2nncc3ccccc23)cc(O)c1O.Cl		3	27	97	69	36.7
COc1cc(/C=N/Nc2nncc3ccccc23)ccc1O.Cl	19.9	4	46	100	24	
Cl.Oc1ccc(/C=N/Nc2nncc3ccccc23)cc1O	6.7	3	51	72	34	
COc1cc(/C=N/NC(=O)c2ccncc2)cc(O)c1O	18.4	8	59	80	41	
O=C(N/N=C/c1ccc(O)c(O)c1)c1ccncc1	6.1	4	19	101	84	
COc1cc(/C=N/NC(=O)c2ccncc2)c(O)cc1O	15.3	82	87	20	18	
COc1cc(/C=N/NC(=O)OCc2ccccc2)cc(OC)c1OC	> 1000	100	95	4	5	
COc1cc(/C=N/NC(=O)OCc2ccccc2)cc(O)c1O	21.3	2	17	57	34	41.4
COc1cc(/C=N/NC(=O)OCc2ccccc2)ccc1O	39.7	36	75	73	73	
O=C(N/N=C/c1ccc(O)c(O)c1)OCc1ccccc1	7.3	6	27	84	48	

SMILES	IC50 [1] [µM]	Activity [2] [%]	inhibition at 1 µM [3] [%]	Activity [4] [%]	Activity [5] [%]	Activity [6] [%]
O=C(N/N=C/c1ccccc1O)OCc1ccccc1	> 1000	104	106	34	24	
COc1cc(/C=N/NC(=O)OCc2ccccc2)c(O)cc1O	13.5	6	74	79	43	
COc1cc(/C=N/N(C)C(=O)OCc2ccccc2)cc(OC)c1O.Cl	119	5	10	64	55	
COc1cc(/C=N/N(C)C(=O)OCc2ccccc2)cc(OC)c1OC.Cl	> 7.1	90	98	6	6	
COc1cc(/C=N/N(C)C(=O)OCc2ccccc2)ccc1O.Cl	26.2	5	58	71	41	
COc1cc(/C=N/Nc2nc3ccccc3s2)cc(OC)c1OC	43.1	14	100	57	4	34
Oc1ccc(/C=N/Nc2nc3ccccc3s2)cc1O		7	44	57	33	41.7
COc1cc(/C=N/Nc2nc3ccccc3s2)cc(O)c1O	6.8	7	56	54	38	
COc1cc(/C=N/N(C)c2nc3ccccc3s2)cc(OC)c1O		3	5	110	107	43.3
COc1cc(/C=N/N(C)c2nc3ccccc3s2)cc(OC)c1OC	> 1000	82	84	7	7	
COc1cc(/C=N/N(C)c2nc3ccccc3s2)ccc1O	26.6	9	20	96	96	
COc1cc(/C=N/N2C(=O)CSC2=S)cc(OC)c1O	11.8	5	59	85	53	
O=C1CSC(=S)N1/N=C/c1ccccc1O	13.1	5	79	87	26	
Cc1c(C)c2c(c(C)c1O)CC[C@@](C)(CCC[C@H](C)CCC[C@H](C)CCCC(C)C)O2 [ALPHA-TOCOPHEROL]		55	78	47		
O=C(/C=C/c1ccc(O)c(O)c1)O[C@@H]1C[C@](O)(C(=O)O)C[C@@H](O)[C@H]1O [CHLOROGENIC ACID]						35.5
COc1cc(/C=N/NC(=O)c2ccncc2)ccc1O [FTIVAZIDE]	86	95	90	63	36	
O=C(N/N=C/c1ccccc1O)c1ccncc1 [SALINAZID]	> 1000	31	75	24	20	
Cc1c(C)c2c(c(C)c1O)CCC(C)(C(=O)O)O2 (stereo unspecified) [TROLOX]	20.1	33	69	76	50	22.2
